Reference: US20170050957A1, “4-AMINO-6-(HETEROCYCLIC)PICOLINATES AND 6-AMINO-2-(HETEROCYCLIC)PYRIMIDINE-4-CARBOXYLATES AND THEIR USE AS HERBICIDES” (Dow AgroSciences LLC, priority 2013, published 2017)
Like-named read-outs stand apart in the source and are kept apart here.

Legend:
[1] = system: Key Broadleaf Weed and Crop Species; test: Post-emergent Test II herbicidal activity (Table 15); assay type: in vivo; details: post-emergence, 336 h, 14 d; for pest or weed control at 35 g/ha: 35 g ai/ha; for pest or weed control at 70 g/ha: 70 g ai/ha; for pest or weed control at 140 g/ha: 140 g ai/ha
Method in brief: (§1)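 Visual injury rating (0 = none, 100 = complete kill) taken 14 d after treatment, relative to untreated plants. Compounds in acetone/DMSO with crop oil concentrate and Triton X-155 were track-sprayed at 187 L/ha onto seedlings at the first-second true leaf stage.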

[2] = system: Key Grass and Sedge Weeds as well as Grass Crops; test: Post-emergent Test II herbicidal activity (Table 16); assay type: in vivo; details: post-emergence, 336 h, 14 days after application; for pest or weed control at 35 g/ha: 35 g ai/ha; for pest or weed control at 70 g/ha: 70 g ai/ha; for pest or weed control at 140 g/ha: 140 g ai/ha
Method in brief: as §1

[3] = Abutilon theophrasti, velvetleaf (Abutilon theophrasti), read-out: Visual Growth Reduction (%) 14 Days After Application, ABUTH
[4] = Brassica napus, oilseed rape, canola (Brassica napus), read-out: Visual Growth Reduction (%) 14 Days After Application, BRSNN
[5] = Chenopodium album, lambsquarters (Chenopodium album), read-out: Visual Growth Reduction (%) 14 Days After Application, CHEAL
[6] = Euphorbia heterophylla, wild poinsettia (Euphorbia heterophylla), read-out: Visual Growth Reduction (%) 14 Days After Application, EPHHL
[7] = Helianthus annuus, sunflower (Helianthus annuus), read-out: Visual Growth Reduction (%) 14 Days After Application, HELAN
[8] = Cyperus esculentus, yellow nutsedge (Cyperus esculentus), read-out: Visual Growth Reduction (%) 14 Days After Application CYPES
[9] = Echinochloa crus-galli, barnyardgrass (Echinochloa crus-galli), read-out: Visual Growth Reduction (%) 14 Days After Application ECHCG
[10] = Oryza sativa, rice (Oryza sativa), read-out: Visual Growth Reduction (%) 14 Days After Application ORYSA
[11] = Setaria faberi, giant foxtail (Setaria faberi), read-out: Visual Growth Reduction (%) 14 Days After Application SETFA
[12] = Triticum aestivum, wheat, spring (Triticum aestivum), read-out: Visual Growth Reduction (%) 14 Days After Application TRZAS
[13] = Zea mays, maize, corn (Zea mays), read-out: Visual Growth Reduction (%) 14 Days After Application ZEAMX

COC(=O)c1nc(-c2cccc3cn[nH]c23)c(F)c(N)c1Cl [Compound 4.13]
60 to 74%: pest or weed control at 140 g/ha [1, 5]
207 to 210 °C: melting point
0 to 29%: pest or weed control at 35 g/ha [1, 3] | pest or weed control at 70 g/ha [1, 3] | pest or weed control at 140 g/ha [1, 3] | pest or weed control at 35 g/ha [1, 4] | pest or weed control at 70 g/ha [1, 4] | pest or weed control at 140 g/ha [1, 4] | pest or weed control at 35 g/ha [1, 5] | pest or weed control at 70 g/ha [1, 5] | pest or weed control at 35 g/ha [1, 6] | pest or weed control at 70 g/ha [1, 6] | pest or weed control at 140 g/ha [1, 6] | pest or weed control at 35 g/ha [1, 7] | pest or weed control at 70 g/ha [1, 7] | pest or weed control at 140 g/ha [1, 7] | pest or weed control at 35 g/ha [2, 8] | pest or weed control at 70 g/ha [2, 8] | pest or weed control at 140 g/ha [2, 8] | pest or weed control at 35 g/ha [2, 9] | pest or weed control at 70 g/ha [2, 9] | pest or weed control at 140 g/ha [2, 9] | pest or weed control at 35 g/ha [2, 10] | pest or weed control at 70 g/ha [2, 10] | pest or weed control at 140 g/ha [2, 10] | pest or weed control at 35 g/ha [2, 11] | pest or weed control at 70 g/ha [2, 11] | pest or weed control at 140 g/ha [2, 11] | pest or weed control at 35 g/ha [2, 12] | pest or weed control at 70 g/ha [2, 12] | pest or weed control at 140 g/ha [2, 12] | pest or weed control at 35 g/ha [2, 13] | pest or weed control at 70 g/ha [2, 13] | pest or weed control at 140 g/ha [2, 13]
